US12551532B2, “Long-acting amylin receptor agonists and uses thereof” (Eli Lilly and Company, priority 2021, dated 2026)
Starred links: 1 amine or outer side, 2 acyl side, 3 side chain; linkers in the order of their positions; H or OH if unused. Positions of bridges follow the written chain, without caps; N, C: chain ends. Non-standard residues stand in square brackets, D forms with d. Residues, ends and D or L forms follow the SMILES beside them. Groups on a side chain read outwards from the residue. *: point of attachment. C20 diacid = O=C(O)CCCCCCCCCCCCCCCCCCC(=O)*; γGlu = O=C(O)[C@H](CCC(=O)[*:2])N[*:1]; αMeF = C[C@](N)(Cc1ccccc1)C(=O)O; NMeD = CN[C@@H](CC(=O)O)C(=O)O; αMeL = CC(C)C[C@](C)(N)C(=O)O; Orn = NCCC[C@H](N)C(=O)O; AEEA = NCCOCCOCC(=O)O; Aib = CC(C)(N)C(=O)O; CH2 = C([*:1])[*:2]

Experiments:
[1] = DIO rats: Compound II alone and in combination with incretin compounds; format: in vivo, Long Evans rats; settings: for Cumulative Food Intake: 14-day treatment period, mean±SEM
Protocol: This study is conducted to investigate the effect of Compound II for diabetes and/or obesity conditions in DIO rats when administered in combination with other incretin compounds, including a GLP-1 agonist (Compound XVII), oxyntomodulin analog (Compound XVIII), and a triagonist of glucagon, GLP-1, and GIP (Compound XIX). Diet-induced obese (DIO) male Long Evans (Envigo) rats, maintained on a calorie rich diet since arrival at Lilly (TD95217; Teklad, Madison, WI), are used in the following studies. Animals are individually housed in a temperature-controlled (24° C.) facility with 12-hour light/dark cycle (lights on 2200) and free access to food (TD95217) and water.
The rats are randomized according to their body weight, so that each experimental group of animals would have similar body weight. The body weights range from 529 to 823 grams.
Each group contains five rats. […] SC injections are made on Days 1, 4, 7, 10 and 13. Body weight and food intake are measured daily throughout the study. Absolute changes in body weight are calculated by subtracting the body weight of the same animal prior to the first injection of molecule.
At the end of the study, blood is collected to measure blood glucose and plasma insulin. Blood glucose is measured by AccuChek glucometers (Roche, Indianapolis, IN). Insulin is measured by ELISA (MSD, Rockville, MD).
All data are presented as mean±SEM of 5 animals per group. Statistical analysis is performed using one-way ANOVA, followed by Tukey's multiple comparison test to compare treatment groups to vehicle group or each other. Significant differences are identified at p<0.05.

hAMY1R = target: T1, hAMY1R (Homo sapiens, UniProt O60894+P30988); experiment: hAMY1R cAMP functional activity (HTRF); format: cell-based; settings: ±SE; UMUC3 cells overexpressing hAMY1R; relative EC50
T1 construct: expressed in transfected cells
T1 sequence (O60894 27-148 partner, one chain of several): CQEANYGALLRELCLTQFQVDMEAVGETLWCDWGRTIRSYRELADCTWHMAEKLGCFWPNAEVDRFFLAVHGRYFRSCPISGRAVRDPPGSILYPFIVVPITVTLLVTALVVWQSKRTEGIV
Protocol: (§1) The AMY1 and CT receptors are GPCRs that are functionally coupled to Gas proteins. […] In vitro activity of peptides is measured by the amount of cAMP formed in human AMY1R and CTR overexpressed cells.
Human AMY1R stable cell lines are generated by further transfecting human RAMP1-pCMVpuroPB (T14213) into UMUC3 hCTR clone cells. After selection, the mRNA levels human RAMP1 from different clones are measured to confirm the expression of human AMY1R.
(§2) hAMY1R cells are cultured in MEM 1× (Corning) supplemented with 10% FBS, 1% antibiotic/antimycotic solution, 1 mM sodium pyruvate, 1×MEM NEAA, 1× GlutaMAX-I, 200 μg/mL hygromycin B, and 0.4 μg/mL puromycin. The hCTR cells are cultured in the same medium lacking the puromycin. Cultured cells are grown to 70% confluency and then incubated overnight with fresh medium.
(§3) Peptides diluted in DMSO are added (200 nL/well) in a 1:3 dilution series using ECHO acoustic liquid handler (Beckman). Cultured cells are detached with TrypLE Express (Gibco), resuspended in assay buffer, and 10 μL containing 1200 cells/well (hCTR) or 1500 cells/well (hAMY1R) are dispensed into each well. The plates are incubated at room temperature for 1 hour.
(§4) The amount of intracellular cAMP is quantitated using HTRF technology (Homogeneous Time Resolved Fluorescence; Cisbio) as per vendor instructions. Briefly, 10 μL cAMP-d2 conjugate and 10 μL anti-cAMP-cryptate conjugate in lysis buffer are incubated with the treated cells at room temperature for 60 min. […] The raw data are converted to cAMP amount (pmol/well) using a cAMP standard curve generated for each experiment.

human CT receptors = target: T2, human CT receptors (Homo sapiens, UniProt P30988); experiment: hCTR cAMP functional activity (HTRF); format: cell-based; settings: ±SE; UMUC3 cells overexpressing hCTR; relative EC50
T2 construct: expressed in transfected cells
T2 sequence (P30988 25-474): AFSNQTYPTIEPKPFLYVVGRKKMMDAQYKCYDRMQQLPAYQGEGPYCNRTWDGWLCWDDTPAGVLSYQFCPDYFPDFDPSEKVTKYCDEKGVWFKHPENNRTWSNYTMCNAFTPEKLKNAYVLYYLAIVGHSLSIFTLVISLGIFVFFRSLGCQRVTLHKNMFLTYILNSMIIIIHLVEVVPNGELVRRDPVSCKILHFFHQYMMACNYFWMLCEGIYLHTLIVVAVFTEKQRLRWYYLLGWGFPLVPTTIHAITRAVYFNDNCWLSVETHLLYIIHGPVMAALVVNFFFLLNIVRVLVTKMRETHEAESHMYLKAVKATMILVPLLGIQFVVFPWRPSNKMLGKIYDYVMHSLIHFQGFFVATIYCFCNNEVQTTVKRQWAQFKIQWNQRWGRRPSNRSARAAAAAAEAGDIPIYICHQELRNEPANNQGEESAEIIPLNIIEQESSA
Protocol: as §1
Human CT receptors are stably expressed in human urinary bladder cells (UM-UC-3, or UMUC3) under control of a pcDNA expression vector. […] After 20 days under selection, the mRNA levels from different clones are measured to confirm the expression of hCTR. To determine the function of over-expressed hCTR cells, the intracellular cAMP levels in response to salmon calcitonin are measured and compared to the expression of hCTR mRNA in each clone.
as §2, §3, §4

Compound | EC50 (hAMY1R) | EC50 (human CT receptors) | also measured
Y-Aib-QGTFTSDYSI-αMeL-LDKK((2-[2-(2-Amino-ethoxy)-ethoxy]-acetyl)-(γGlu)-CO-(CH2)18-CO2H)AQ-Aib-AFIEYLLEGGPSSGAPPPS-NH2 (YXQGTFTSDYSIXLDKKAQXAFIEYLLEGGPSSGAPPPS; Aib, αMeL; lipidated Lys; C-terminal amide; SITE 2 X at position 2 is Aib; SITE 13 X at position 13 is alpha-methyl-leucine; MOD_RES 17 K at position 17 is chemically modified by conjugation of the epsilon-amino group of the lysine side chain with (2-[2-(2-amino-ethoxy)-ethoxy]-acetyl)-(gamma-glutamic acid)-CO-(CH2)18-CO2H; SITE 20 X at position 20 is Aib; MOD_RES 39 S at position 39 is amidated) [Compound XIX, triagonist of glucagon, GLP-1, and GIP] |  |  | Body Weight Change ([1]; 3 nmol/kg SC Day 1, 4, 7, 10, 13, Day 1 to Day 14, mean±SEM): -43.28 ± 2.54 g; Cumulative Food Intake ([1]; 3 nmol/kg SC every three days): 157.50 ± 10.63 g
H-Aib-QGTFTSDYSKYLDEKKAK((2-[2-(2-Amino-ethoxy)-ethoxy]-acetyl)2-(γGlu)-CO-(CH2)18-CO2H)EFVEWLLEGGPSSG-NH2 (H-H[Aib]QGTFTSDYSKYLDEKKAK([AEEA-AEEA-γGlu-C20 diacid])EFVEWLLEGGPSSG-NH2) [Compound XVIII, oxyntomodulin analog] |  |  | Body Weight Change ([1]; 10 nmol/kg SC Day 1, 4, 7, 10, 13, Day 1 to Day 14, mean±SEM): -50.24 ± 6.36 g; Cumulative Food Intake ([1]; 10 nmol/kg SC every three days): 165.86 ± 7.45 g
CC[C@H](C)[C@H](NC(=O)[C@@H]1CCCN1C(=O)CNC(=O)[C@H](Cc1ccccc1)NC(=O)[C@H](CC(=O)O)N(C)C(=O)[C@H](CC(N)=O)NC(=O)[C@H](CO)NC(=O)[C@H](CO)NC(=O)[C@H](CCCNC(=N)N)NC(=O)[C@@H](NC(=O)[C@H](CC(C)C)NC(=O)[C@](C)(Cc1ccccc1)NC(=O)[C@H](CCC(=O)O)NC(=O)[C@H](C)NC(=O)[C@H](CC(C)C)NC(=O)[C@H](CCCN)NC(=O)CNC(=O)[C@@H](NC(=O)[C@H](C)NC(=O)[C@@H]1CSCSC[C@H](NC(=O)[C@@H](N)CCCCN)C(=O)N[C@@H](CCC(=O)O)C(=O)N[C@@H]([C@@H](C)O)C(=O)N[C@@H](C)C(=O)N[C@@H]([C@@H](C)O)C(=O)N1)[C@@H](C)O)C(C)C)C(=O)N[C@@H](CC(C)C)C(=O)N1CCC[C@H]1C(=O)N1CCC[C@H]1C(=O)N[C@H](C(=O)N[C@@H](CCC(=O)O)C(=O)N[C@H](C(=O)NCC(=O)N[C@@H](CO)C(=O)N[C@@H](CC(N)=O)C(=O)N[C@H](C(=O)N[C@@H](Cc1ccc(O)cc1)C(N)=O)[C@@H](C)O)C(C)C)[C@@H](C)O [Compound V, KCETATCATG-Orn-LAE-αMeF-LVRSSN-NMeD-FGPILPPTEVGSNTY-NH2] (H-KCETATCATG[Orn]LAE[αMeF]LVRSSN[NMeD]FGPILPPTEVGSNTY-NH2; linker 2-7 via CH2) | 0.139 ± 0.017 nM | 17 ± 2.44 nM | 
CC(C)C[C@H](NC(=O)[C@H](CCCN)NC(=O)CNC(=O)[C@@H](NC(=O)[C@H](C)NC(=O)[C@@H]1CSCSC[C@H](NC(=O)CC[C@H](N)C(=O)O)C(=O)N[C@@H](CC(N)=O)C(=O)N[C@@H]([C@@H](C)O)C(=O)N[C@@H](C)C(=O)N[C@@H]([C@@H](C)O)C(=O)N1)[C@@H](C)O)C(=O)N[C@@H](C)C(=O)N[C@@H](CCC(=O)O)C(=O)N[C@@](C)(Cc1ccccc1)C(=O)N[C@@H](CC(C)C)C(=O)N[C@H](C(=O)N[C@@H](CCCNC(=N)N)C(=O)N[C@@H](CO)C(=O)N[C@@H](CO)C(=O)N[C@@H](CC(N)=O)C(=O)N(C)[C@@H](CC(=O)O)C(=O)N[C@@H](Cc1ccccc1)C(=O)NCC(=O)N1CCC[C@H]1C(=O)N[C@@H](CCCCN)C(=O)N[C@@H](CC(C)C)C(=O)N1CCC[C@H]1C(=O)N1CCC[C@H]1C(=O)N[C@H](C(=O)N[C@@H](CCC(=O)O)C(=O)N[C@H](C(=O)NCC(=O)N[C@@H](CO)C(=O)N[C@@H](CC(N)=O)C(=O)N[C@H](C(=O)N[C@@H](Cc1ccc(O)cc1)C(N)=O)[C@@H](C)O)C(C)C)[C@@H](C)O)C(C)C [Compound III, γE-CNTATCATG-Orn-LAE-αMeF-LVRSSN-NMeD-FGPKLPPTEVGSNTY-NH2] (γGlu-CNTATCATG[Orn]LAE[αMeF]LVRSSN[NMeD]FGPKLPPTEVGSNTY-NH2; linker 1-6 via CH2) | 0.156 ± 0.027 nM | 16.3 ± 3.03 nM | 
CC(C)C[C@H](NC(=O)[C@H](CCCCN)NC(=O)CNC(=O)[C@@H](NC(=O)[C@H](C)NC(=O)[C@@H]1CSCSC[C@H](NC(=O)CC[C@H](N)C(=O)O)C(=O)N[C@@H](CC(N)=O)C(=O)N[C@@H]([C@@H](C)O)C(=O)N[C@@H](C)C(=O)N[C@@H]([C@@H](C)O)C(=O)N1)[C@@H](C)O)C(=O)N[C@@H](C)C(=O)N[C@@H](CCC(=O)O)C(=O)N[C@@H](Cc1ccccc1)C(=O)N[C@@H](CC(C)C)C(=O)N[C@H](C(=O)N[C@@H](CCCNC(=N)N)C(=O)N[C@@H](CO)C(=O)N[C@@H](CO)C(=O)N[C@@H](CC(N)=O)C(=O)N[C@@H](CC(N)=O)C(=O)N[C@@H](Cc1ccccc1)C(=O)NCC(=O)N1CCC[C@H]1C(=O)N[C@@H](CCCCNC(=O)CC[C@H](NC(=O)CC[C@H](NC(=O)COCCOCCNC(=O)CCCCCCCCCCCCCCCCCCC(=O)O)C(=O)O)C(=O)O)C(=O)N[C@@H](CC(C)C)C(=O)N1CCC[C@H]1C(=O)N1CCC[C@H]1C(=O)N[C@H](C(=O)N[C@@H](CCC(=O)O)C(=O)N[C@H](C(=O)NCC(=O)N[C@@H](CO)C(=O)N[C@@H](CC(N)=O)C(=O)N[C@H](C(=O)N[C@@H](Cc1ccc(O)cc1)C(N)=O)[C@@H](C)O)C(C)C)[C@@H](C)O)C(C)C [Compound XI] (γGlu-CNTATCATGKLAEFLVRSSNNFGPK([γGlu-γGlu-AEEA-C20 diacid])LPPTEVGSNTY-NH2; linker 1-6 via CH2) | 0.038 ± 0.0078 nM | 10.5 ± 2.2 nM | 
CC[C@H](C)[C@H](NC(=O)[C@@H]1CCCN1C(=O)CNC(=O)[C@H](Cc1ccccc1)NC(=O)[C@H](CC(N)=O)NC(=O)[C@H](Cc1c[nH]cn1)NC(=O)[C@H](CO)NC(=O)[C@H](CO)NC(=O)[C@H](CCCNC(=N)N)NC(=O)[C@@H](NC(=O)[C@H](CC(C)C)NC(=O)[C@H](Cc1ccccc1)NC(=O)[C@H](CCC(=O)O)NC(=O)[C@H](C)NC(=O)[C@](C)(CC(C)C)NC(=O)[C@H](CCCN)NC(=O)CNC(=O)[C@@H](NC(=O)[C@H](C)NC(=O)[C@@H]1CSCSC[C@H](NC(=O)[C@@H](N)CCCCN)C(=O)N[C@@H](CCC(=O)O)C(=O)N[C@@H]([C@@H](C)O)C(=O)N[C@@H](C)C(=O)N[C@@H]([C@@H](C)O)C(=O)N1)[C@@H](C)O)C(C)C)C(=O)N[C@@H](CC(C)C)C(=O)N1CCC[C@H]1C(=O)N1CCC[C@H]1C(=O)N[C@H](C(=O)N[C@@H](CCC(=O)O)C(=O)N[C@H](C(=O)NCC(=O)N[C@@H](CO)C(=O)N[C@@H](CC(N)=O)C(=O)N[C@H](C(=O)N[C@@H](Cc1ccc(O)cc1)C(N)=O)[C@@H](C)O)C(C)C)[C@@H](C)O [Compound VII] (H-KCETATCATG[Orn][αMeL]AEFLVRSSHNFGPILPPTEVGSNTY-NH2; linker 2-7 via CH2) | 0.173 ± 0.034 nM | 11.9 ± 1.53 nM | 
